Data on 3 molecules can be found in patent US10118943B2, “Compounds and methods for inhibiting cell death” (Ramot at Tel-Aviv University Ltd., priority 2012, dated 2018).

The subject of one data set is primary cortical neurons. Nature of the data set: PSD-95 density in primary cortical neuron culture. The data set is classed as cell-based, rat. On the procedure: Methods: 1. Primary cultures of neurons were prepared as follows. Newborn rats were sacrificed on postnatal day 1. Cerebral cortex tissue was then dissected and dissociated individually from each pup with the Papain Dissociation System (PDS; Worthington Biochemical Corporation) according to the manufacturer's instructions. 2. Cells were fixed with ice cold methanol, blocked with 2% bovine serum albumin (BSA) and 5% normal goat serum in Tris buffered saline containing tween 20 (TBS-T; 20 mM Tris pH 7.5, 136.8 mM NaCl, and 0.05% v/v Tween 20), and incubated with primary antibody followed by the appropriate secondary antibody. 3. Primary antibodies that were used include: monoclonal anti PSD-95 (ab-2723, Abcam), monoclonal anti Tyr-α-tubulin antibody (YL1/2) (VMA1864, Abcys, Paris, France), polyclonal anti Glu-α-tubulin antibody (L4) (AbC0101, Abcys, Paris, France), DyLight 488-labeled secondary goat anti-mouse IgG, DyLight 633-labeled secondary goat anti-rabbit IgG (KPL, Gaithersburg, Md., USA), Cy3-conjugated secondary goat anti-Rat IgG, (Jackson ImmunoResearch). 4. Images were collected with a Leica SP5 confocal laser scanning microscope (Mannheim, Germany) with 63× oil immersion optics, laser lines at 488, 561, 633 nm. Identical confocal laser scanning microscopy (CLSM) parameters (e.g., scanning line, laser light, gain, and offset etc.) were used for control and NAP treated cells.
For instance, a PSD-95 expression assay using primary cortical neuron cultures established from suitable animals may be performed to confirm a compound's activity in promoting cell plasticity. More specifically, primary cultures of neurons are prepared by first taking cerebral cortex tissue from newborn rats on postnatal day 1. The cerebral cortex tissue is then dissected and dissociated individually from each animal. Cells are fixed with ice cold methanol, blocked (e.g., with bovine serum albumin (BSA) and normal goat serum), and incubated with primary antibody (e.g., monoclonal antibody against PSD-95), optionally followed by the appropriate secondary antibody for imaging purposes. Images of primary neuronal cultures are taken and compared between cultures with or without being exposed to a test compound. An increased PSD-95 expression is indicative of the test compound being capable of promoting or protecting cell plasticity, especially neuronal plasticity.
Cerebral cortex tissue from newborn rats was dissected and dissociated individually from each pup with the Papain Dissociation System (PDS), (Worthington Biochemical Corporation) according to the manufacturer's instructions. Cortical neurons were maintained in Neurobasal medium (NB), (Gibco) supplemented with NeuroCult B27-SM1 ([…]), 1% Glutamax (Gibco), and grown on poly-D-lysine-coated cell culture glass cover slips.
Images were collected with a Leica SP5 confocal laser scanning microscope (Mannheim, Germany) with 63× oil immersion optics, laser lines at 488, 561, 633 nm or with LSM 510 META (Zeiss, Jena, Germany) confocal laser scanning microscope with 63× oil immersion optics, laser lines at 488, 568, 633 nm. When comparing fluorescence intensities, identical CLSM parameters (e.g., scanning line, laser light, gain, and offset etc.) were used. All of the fluorescent signals acquired were above the autofluorescent background as measured from a control slide stained with secondary antibody without a primary antibody. To compare the relative levels of protein expression, the average integrated density (AID) image analysis procedure was used for cell immunostains. In brief, integrated density is defined by the sum of the values of the pixels in the selected region of interest (ROI). This is equivalent to the product of Area and Mean Gray Value. AID for the positive stained area was determined by measuring the fluorescent intensity of the ROI, which is above the positive cut-off intensity. […]

The next data set has as its system rat brain extracts. In words: NAP / D-SAL affinity chromatography with rat brain extracts, mass spectrometry. The data set is classed as binding. The following applies: repeated twice. The method, then:
The affinity chromatography column included SulfoLink® Immobilization Kit for Peptides (44999, Thermo Scientific, Rockford, Ill., USA). Binding of […] was performed according to the manufacturers' instruction. Recombinant protein was loaded (2 mg/mL) on the columns (2 mL) and incubated overnight at 4° C.; the columns were then washed with phosphate-buffered saline until all unbound protein was eluted [as confirmed by protein assay (Bradford; Bio-Rad Laboratories, Mannheim, Germany)]. NAP-binding proteins were eluted in IgG Elution buffer (pH 2.8) (Thermo scientific). […] Sodium dodecyl sulfate-polyacrylamide gel electrophoresis (SDS-PAGE) was then performed followed by western blot analysis in order to detect the protein (R. Zamostiano et al., J Biol Chem 276, 708 (Jan. 5, 2001)).
Affinity chromatography was carried out as above with rat brain extracts as before (34, 36). However, several additional experiments were undertaken and mass spectrometry was employed to identify additional potential NAP-interacting proteins that elute from the affinity column.

Data set [1] has as its system PC12 cells. Nature of the data set: PC12 cell survival assay, zinc toxicity, MTS (Example 1). To be noted: for protection against zinc-induced PC12 cell death (MTS) with EB3 silenced: RNA silencing of EB3. The method, then: PC12 cells (Pheochromocytoma cells) (ATCC, Bethesda, Md., USA) were seeded at 3×10^4 cells/cm^2 on poly-L-Lysine coated plastic tissue culture dishes (Corning, Lowell, Mass., USA) to form an adherent monolayer. Cells were maintained in Dulbecco's modified Eagle's medium (DMEM) supplemented with 10% horse serum (HS), 5% fetal calf serum (FCS), 2 mM glutamine, 100 U/ml penicillin and […] streptomycin (Biological Industries, Beit Haemek, Israel). PC12 differentiation was induced by nerve growth factor (NGF, Sigma) at concentrations of 50 ng/ml by replacing half of the medium every other day until the cells acquired a differentiated morphology. Differentiated cells were defined as bearing two or more neurites with lengths equal to or more than twice the diameter of the cell body (P. Lamoureux et al., The Journal of cell biology 110, 71 (January, 1990)). The cells were incubated in 5% CO2 in a humidified incubator at 37° C. The cells were sub-cultured every 5 days at a 4:1 split ratio by pipetting. The medium was changed every 2 or 3 days after adhesion.
Transfections were performed using Lipofectamine RNAiMAX (Invitrogen). Transfection was carried out according to manufacturer's protocol. For rat MAPRE3 knockdown, PC12 cells or neurons were plated in growth medium without antibiotics at concentration of 10^4 cells/0.32 cm^2 such that they will be 30-50% confluent at the time of transfection. To obtain the highest transfection efficiency and low non-specific effects, siRNA transfection was performed in the following optimized conditions: 50 nM for neurons and 25 nM PC12 of each siRNA construct with 0.2 μl Lipofectamine RNAiMAX (Invitrogen) was added per well of the 96-well plate and scaled up for different 24 or 6-well plates, according to the manufacturer's instructions. The medium was changed one day after transfection. 48 and 72 hours later, cells were harvested to assay for gene knockdown at the RNA and protein levels.
The cells were incubated for 4 hrs at 37° C. 5% CO2. Survival was measured using the MTS assay.
Metabolic activity of cells was measured by the CellTiter 96® Aqueous Non-Radioactive Cell Proliferation kit in accordance with the manufacturer's instructions (Promega). The assay uses a colorimetric method for determining the number of viable cells employing a tetrazolium compound [3-(4,5-dimethylthiazol-2-yl)-5-(3-carboxymethoxyphenyl)-2-(4-sulfophenyl)-2H-tetrazolium, MTS] and an electron-coupling reagent, phenazine methosulfate (PMS). MTS is bio-reduced by cells into a formazan product that is detected at 490 nm. The conversion of MTS into the formazan form is accomplished by dehydrogenase enzymes found in metabolically active cells. Thus, the quantity of formazan product as measured by the amount of 490 nm absorbance is directly proportional to the number of living cells in culture (A. H. Cory, T. C. Owen, J. A. Barltrop, J. G. Cory, Cancer Commun 3, 207 (July, 1991)).

Data set [2] deals with PC12 cells. The following applies: previously published data, read-out: EC50 for zinc cell killing effect; cited from earlier work.
In data set [3] the test system is PC12 cells. The following applies: ZnCl2 400 μM, 4 h. The method, then: FIG. 15: Rat pheochromocytoma cells (PC12) were seeded on Poly-D-Lysine coated 96-well tissue culture dishes in high concentration (30,000 cells/well). On the day of the experiment the cells were treated with ZnCl2 (400 μM) either alone or in combination with different concentration of SKIP for 4 h. After 4 h the cell viability was analyzed by MTS assay. […] All values are from one experiment performed in hexplicate.
Rat pheochromocytoma cell (PC12, ATCC, Bethesda, Md., USA) were grown in 10-cm tissue culture dishes (Corning). The base medium for this cell line was RPMI-1640 Medium (Invitrogen) supplemented with 10% heat-inactivated horse serum, 5% fetal bovine serum and solution containing 100 U/ml penicillin together with […] streptomycin (Biological Industries, Beit Haemek, Israel). The cells were incubated in 95% air; 5% CO2 in a humidified incubator at 37° C. The medium was changed every 2 to 3 days. The cells were subcultured when cell density reached 4×10^6 cells/ml. The cells were split in a ratio of 1:4.
On the day before the experiment cells were to be harvested, re-suspended and seeded on tissue culture dishes. For cell viability measurements, cells were seeded on Poly-D-Lysine coated 96-well tissue culture dishes (Sigma-Aldrich) at a concentration of 3×10^4 cells/well.
The cell viability is measured by colorimetric method that determines the number of viable cells in culture. This method is based on the bio-reduction of the tetrazolium compound [3-(4,5-dimethylthiazol-2-yl)-5-(3-carboxymethoxyphenyl)-2-(4-sulfophenyl)-2H-tetrazolium; MTS] by living cells into a colored formazan product. This reaction is occurring in the presence of an electron coupling reagent (phenazine ethosulfate; PES). The amount of formazan product is measured by ELISA plate reader at 490 nm and is directly proportional to the number of living cells in culture (CellTiter 96® AQueous One Solution Cell Proliferation Assay; Promega, Madison, Wis., USA).

For data set [4], the target named is T1, Full-length human EB3 recombinant protein (human, UniProt Q9UPY8 1-281).
T1 construct: mature; Full-length protein; also called recombinant EB3; MAPRE3
T1 sequence (Q9UPY8 whole entry): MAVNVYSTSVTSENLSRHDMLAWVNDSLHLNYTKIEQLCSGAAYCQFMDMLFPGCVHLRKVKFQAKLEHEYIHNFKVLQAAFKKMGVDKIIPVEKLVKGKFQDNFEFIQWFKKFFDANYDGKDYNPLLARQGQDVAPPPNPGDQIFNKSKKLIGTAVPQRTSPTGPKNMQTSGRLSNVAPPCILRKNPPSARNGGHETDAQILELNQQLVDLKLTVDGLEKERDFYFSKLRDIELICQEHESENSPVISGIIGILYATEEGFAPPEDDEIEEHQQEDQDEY
Nature of the data set: competition with soluble peptide on the NAP affinity column; western blot. On the procedure: Column load, flow through, wash and elution fractions were further analyzed by polyacrylamide gel electrophoresis, followed by western analysis with EB3 antibodies. […] Column chromatography, elution and western blots were performed as above. The extract fractions (flow, wash and elution) were separated by electrophoresis followed by protein detection (FIG. 6). […] In order to verify that EB3 was indeed eluted from the column, beads were taken from the column resin mixed with sample buffer and western blot analysis was performed (FIG. 6—"[…]" most right lane).
In general terms: Immunoblotting shows a protein as a band on a membrane.

Entries after “also recorded” stand apart in the source; their conditions may differ.

Turning to `CC[C@H](C)[C@H](NC(=O)[C@H](CO)NC(=O)[C@@H](NC(=O)[C@@H]1CCCN1C(=O)[C@H](C)NC(=O)[C@@H](N)CC(N)=O)C(C)C)C(=O)N1CCC[C@H]1C(=O)N[C@@H](CCC(N)=O)C(=O)O` [NAP], the “effect on PSD-95 expression with EB3 silencing” value with primary cortical neurons (10^−12M NAP, 48 hours siRNA against EB3) was “abolished NAP activity; also recorded: completely inhibited”. Further, in the data set on primary cortical neurons (10^−12M, 2 hrs, 13 DIV cortical neurons (FIG. 10d)), the “increase in PSD-95 expression” value is on record as 75%. For the same molecule, in the data set with primary cortical neurons (10^−12M, DIV 13, 2 hours), the “PSD-95 expression in dendrites (FIG. 11)” value was “enhances PSD-95 expression”. Further, the “density of PSD-95 puncta vs vehicle controls” value with primary cortical neurons (NAP 10^−18M-10^−9M, DIV 13, 2 hrs) was “significantly increased”. The “peak effect on density of PSD-95 over control” value in the data set on primary cortical neurons (NAP concentration of 10-12M, 2 hours) was 50%. Moreover, the “derivative peptides effect on PSD-95 density vs vehicle controls (FIG. 10c)” value in the data set with primary cortical neurons (neurons treated for 2 hrs) is listed as “significantly increased”. Moreover, in the data set with rat brain extracts, the “interaction with drebrin (affinity column eluate, mass spectrometry)” value is recorded as “specific interaction”. Also, the “protection against cell death induced by zinc toxicity (MTS survival)” value with PC12 cells [1] (400 μM zinc, 4 hrs, peptide 10^−9M) is listed as “significant protection effect; also recorded: significantly increased survival”. For the same molecule, the “protection against cell death induced by zinc toxicity (MTS)” value in the data set on PC12 cells [1] (400 μM zinc, 4 hrs, peptide 10^−15M) is reported as “significant protection effect”. Also, the “protection against zinc-induced PC12 cell death (MTS) with EB3 silenced” value is reported as “not in the presence of EB3 silencing” with PC12 cells [1] (500 microM zinc, NAP 10^−15M) and “does not protect” with PC12 cells [1] (500 microM zinc, NAP 10^−15M, listed as NAPVSIPQ). Further, the “protection against zinc-induced PC12 cell death (MTS)” value in the data set with PC12 cells [1] (500 microM zinc, NAP 10^−15M, control situations (non-specific siRNA, no treatment)) is reported as “protected against by NAP treatment; also recorded: protects in the control situations”.
In the case of `[Cl-].[Cl-].[Zn+2]` [zinc, ZnCl2], the concentration for a half-maximal effect (EC50) in the data set on PC12 cells [2] was 308 ± 38 µM. Moreover, the “cell death from zinc treatment” value with PC12 cells [3] was around 20%. In the data set on PC12 cells [1] (PC12 cells, 4 hrs, data not shown), the “zinc concentration at which significant cell death was observed” value is above 200 µM. Also, the “reduction of cell viability by zinc” value in the data set on PC12 cells [1] (vs control without zinc) is around 25%.

B1: NAPVSKIPQ (peptide)
peptide: NAPVSKIPQ
B1: the binding result in data set [4] is “binds”.

By EC50 is commonly meant the midpoint of the concentration-response curve.
